Earlier results, collected in US20090269400A1, “Nanoparticulate and Controlled Release Compositions Comprising a Cephalosporin” (ELAN PHARMA INTERNATIONAL LIMITED, priority 2005, published 2009).
Read-outs that look alike come from different tables or passages of the source.

Details: stated in words in background/summary, no method given

| Compound | solubility in water | solubility in water (listed as cefpodoxime proxetil) |
| --- | --- | --- |
| COCC1=C(C(=O)OC(C)OC(=O)OC(C)C)N2C(=O)[C@@H](NC(=O)/C(=N\OC)c3csc(N)n3)[C@H]2SC1 (mixture of isomers) [Cefpodoxime proxetil, (RS)-1(isopropoxycarbonyloxy)ethyl (+)-(6R,7R)-7-[2-(2-amino-4-thiazolyl)-2-{(Z)methoxyimino}acetamido]-3-methoxymethyl-8-oxo-5-thia-1-azabicyclo [4.2.0]oct-2-ene-2-carboxylate] | practically insoluble in water | only slightly soluble in water |
| COCC1=C(C(=O)O)N2C(=O)[C@@H](NC(=O)/C(=N\OC)c3csc(N)n3)[C@H]2SC1 [cefpodoxime] | practically insoluble in water | – |
